row,Compound,melting point
1,CCOC(=O)c1[nH]c(SCC)nc1C(C)(C)O,82 to 85 °C
2,CCC12CCC3C4CCC(OC)=CC4=CCC3C1C(OC(C)=O)CC2=O (configuration not stated),190 °C
3,COc1ccc2c(c1)CCC(c1ccc(OC)cc1OC)C2=O (configuration not stated),116 to 118 °C
4,COC(=S)c1[nH]c2ccc(Cl)cc2c1-c1ccccc1,193 to 196 °C
5,N#Cc1ccc(CN2CCCNC2=C[N+](=O)[O-])cn1,214 to 216 °C
6,CC(C)(C)OC(=O)NC(Cc1ccccc1)C(=O)NC(Cc1ccc(C(F)(F)F)cc1)C(O)c1ccc(F)cc1 (mixture of isomers),230 to 231 °C
7,CC(=O)c1ccc(S(=O)(=O)NCC(F)(F)F)cc1,180 to 181 °C
8,Cc1nnc(-c2ccc3ncn(-c4ccc(OC(F)F)cc4)c3c2)o1,154 to 155 °C
9,CSC(SC)=C(C#N)C(=O)c1cc(C)ccc1C,74.5 to 75.5 °C
10,O=c1ccc(-c2ccc3c(c2)CCN(C2CCC2)CC3)n[nH]1,250 to 251 °C
11,Cc1c(I)ccc2c1C(=O)NS2(=O)=O,257 to 258 °C
12,COc1ccc(-c2c(CO)c(CO)c3sc4ccccc4n23)cc1,156 to 157 °C
13,Cn1c([N+](=O)[O-])cnc1COc1ccc(C(F)(F)F)cc1[N+](=O)[O-],126 °C
14,CN(CC(=O)OC(C)(C)C)S(=O)(=O)c1ccc2c(Cl)cnc(NC(=N)N)c2c1,84 °C
15,COc1ccc(NC(=O)OC2CN3CCC2CC3)cc1 (configuration not stated),160 °C
16,Cc1cn(C2CC(O)(COCc3ccccc3)C(CO)O2)c(=O)n(COCc2ccccc2)c1=O (configuration not stated),83 to 84 °C
17,CC(C(N)=O)c1ccc2c(c1)CC(=O)c1ccccc1S2 (configuration not stated),184 to 186 °C
18,CCCOc1ccc(S(=O)(=O)N2CCN(CC)CC2)cc1-c1nc2cc3ncn(Cc4ccc(F)cc4)c3cc2c(=O)[nH]1,155 to 158 °C
19,Fc1cc(Cl)ccc1NC(=S)C1CCCC=C1N1CCOCC1 (configuration not stated),86 to 88 °C
20,CN(C)CCOC(=O)c1cc(F)ccc1Nc1ccnc2c(Cl)cccc12,121 to 122 °C
21,CC(SC1COC(c2ccc(C(=O)Nc3ccc(C#N)c(C#N)c3)cc2)OC1)C(O)(Cn1cncn1)c1ccc(F)cc1F (configuration not stated),182 °C
22,CC(C)(C(=O)c1ccccc1)C(N)=S,172 to 175 °C

row,Compound,melting point
1,CCN1C(=O)C(C)(C)C(=O)N(C)c2cc(CCCN(CCn3ccc4occc4c3=O)Cc3cccnc3C)ccc21,151 to 155 °C
2,O=C1Nc2ccccc2S(=O)c2ccccc21 (configuration not stated),308 to 310 °C
3,CC(=O)c1ccc(C)c(N=C2NCCN2)c1,160 to 162 °C
4,CNC(=O)c1cccc2cccc(C(=O)Nc3ccc(F)cc3C)c12,249 °C
5,Cn1ncc(/C=C/C(=O)Nc2ccc(CC(=O)O)cc2)c1-c1ccc(F)cc1,245 to 246 °C
6,COc1ccc(-c2cc(Cl)c3cc(O)c(Br)cc3c2)cc1,138 to 139 °C
7,CCCCCCCCC(C)OC(=O)NC(C)(C=O)CCc1c[nH]c2ccccc12 (configuration not stated),178 to 179 °C
8,COc1ccccc1NC(=O)Nc1nc(NCCc2ccc(O)cc2)nc(Oc2ccc3ccccc3c2)n1,238 °C
9,CCOC(=O)c1c(SC2CCCCC2=O)nc2cc(Cl)c(F)cc2c1O (configuration not stated),252 to 257 °C
10,C=C1c2ccccc2C(=O)N1c1ccncc1,173 to 174 °C
11,COCCOCCOCCOCCNS(=O)(=O)c1ccc(NC=C2C(=O)Nc3ccc4ncsc4c32)cc1,158 to 159 °C
12,CCC1c2cccn2-c2ccc(Br)cc2N1S(=O)(=O)c1ccc(O)c(C)c1 (configuration not stated),191 to 193 °C
13,O=C(NCCCC1CCC2=C1CC=CC2)C(F)(F)F (configuration not stated),61 to 62 °C
14,CCCCNS(=O)(=O)c1ccc(N2CCC(=O)CC2)cc1,79 to 82 °C
15,O=[N+]([O-])c1ccc(S(=O)(=O)NCCc2ccccc2)c([N+](=O)[O-])c1,127 to 128 °C
16,Sc1nc2ccc(Cl)cc2c2nc(-c3ccc(Br)o3)nn12,273 to 276 °C
17,COc1nc(C)cnc1NS(=O)(=O)c1cccnc1-c1ccc(N(C)C)cc1,183 to 184 °C
18,Nc1ccc(S(=O)(=O)c2cc(-c3ccc(F)cc3)nc(N3CCCC3)c2)cc1,245 to 246 °C
19,CC(C)c1ccc([N+](=O)[O-])c(C(C)C)c1NC(=O)CN1CCN(CCSc2nc3cccc([N+](=O)[O-])c3o2)CC1,70 to 72 °C
20,N#CC1(Nc2ccccc2)CCN(C2CCCc3ccccc32)CC1 (configuration not stated),152 to 153 °C
21,CCCn1c(=O)c2c(nn3cc(C4CC4)[nH]c23)n(Cc2ccccc2)c1=O,264 to 265 °C
22,COc1ccc(C2(CC3CO3)S(=O)(=O)CCCS2(=O)=O)cc1OC (configuration not stated),175 to 176 °C

# Further lines, results first:
row,melting point,Compound
1,230 °C,CC(C)N1C(=O)C(=O)NC1=NC(=N)Nc1ccc(Cl)c(Cl)c1
2,87.5 to 89 °C,CCOC(=O)C1=C(C(F)(F)F)NC(N)(C(F)(F)F)C(C(=O)OCC)S1 (configuration not stated)
3,192 to 197 °C,O=c1c(-c2ccccc2)c(Cn2cnc3ccccc32)oc2ccc(Br)cc12
4,178 to 180 °C,CCOC(=O)C1(NC(=O)c2ccc3c(Cl)cnc(Cl)c3c2)CCCC1
5,203 to 205 °C,COc1ccc(N2CCN(c3ccc(S(=O)(=O)N[C@@H](Cc4ccccc4)C(=O)O)cc3)CC2)cc1
6,98 to 100 °C,O=C(OCCOc1ccccc1)c1cccc(NC(=O)C(CS)Cc2ccccc2)c1 (configuration not stated)
7,106 to 110 °C,Cc1occc(=O)c1OC(=O)c1ccccc1
8,131 to 134 °C,CCOC(=O)C=Cc1c(C#N)cnn1-c1ccc(Cl)c(Cl)c1Cl
9,174 °C,CCc1nn(CCOc2ccc(CC3SC(=O)NC3=O)cc2)c(=O)c2ccccc12 (configuration not stated)
10,146 to 148 °C,Cc1ccc(-n2nc3c(cc2=O)CCc2sc(C(C)O)cc2-3)cc1 (configuration not stated)
11,128 to 132 °C,CCc1cc2c(s1)C(C(=O)O)CC2=O (configuration not stated)
12,260 to 270 °C,CC(c1ccccc1)c1cc2c(=O)[nH]c(N)nc2s1 (configuration not stated)
13,235 °C,O=C1c2cccc3cccc(c23)C(=O)N1CCN1CCC(c2c[nH]c3ccc(F)cc23)CC1
14,134 to 135 °C,C=CCON=C(CC)C1=C(O)CC(c2ccc(NS(C)(=O)=O)cc2)CC1=O (configuration not stated)
15,184 to 185 °C,CN1C(=O)C(NC(=O)c2ccccc2)C(C)(C)SC1=S (configuration not stated)
16,146 to 148 °C,COCc1ncccc1CN(CCn1ccc2oc(C)cc2c1=O)Cc1ccc2c(c1)N(C)C(=O)C(C)(C)C(=O)N2C1CC1
17,75 to 77 °C,O=C(NCCCCSc1ccncc1)c1ccccc1
18,94 to 96 °C,CN(CCc1ccncc1)S(=O)(=O)C1CCCCC1
19,98 to 99 °C,Cc1ccc([N+](=O)[O-])cc1C(=O)N(C)C
20,228 to 230 °C,COC(=O)CC[C@H](NC(=O)c1ccc(C#Cc2cnc3nc(NC(=O)C(C)(C)C)nc(O)c3c2)s1)C(=O)OC
21,65 °C,C#CCn1c(C)c(C(=O)OCC)sc1=O
22,86 to 88 °C,CCCCNC(=O)[C@@H]1C[C@]2(NC(=O)N(CCCN3CCC(O)CC3)C2=O)c2cc(F)ccc2O1
23,68 to 70 °C,CS(=O)(=O)CCCCC(Cc1ccccc1)S(=O)(=O)c1ccc(Cl)cc1 (configuration not stated)
24,168 °C,Oc1ccc2c(c1)CCCC(c1ccccc1)=C2c1ccc(OCCCCCSCCCC(F)(F)F)cc1
25,125 to 130 °C,Brc1ccc(-c2coc3c2ccc2ccccc23)cc1
26,115 to 118 °C,COc1cc(CNC(c2ccccc2)c2ccccc2)ccc1O
27,235 to 255 °C,COc1ccc2c(c1O)CC(C(=O)O)N(C(=O)N(C)c1ccccc1)C2 (racemic)

row,melting point,Compound
1,206 to 207 °C,CC(=O)Oc1cc(C)c(C)cc1C1(OC(C)=O)C(=O)c2ccccc2C1=O
2,> 220 °C,CC(C)CCCC(C)NC1=NS(=O)(=O)c2cc(Cl)ccc2N1 (configuration not stated)
3,138 to 141 °C,CC(C)(C)OC(=O)N1CCC2(CC1)CC(c1ccc(Cl)cc1)=NO2
4,102 °C,COc1ccc(-c2nnc(C(=O)N3CC(Oc4ccc(CN5CCC(C)(CO)CC5)cc4)C3)o2)cc1
5,117 to 118 °C,Cc1oc(-c2ccccc2)nc1COc1cccc(COc2ccccc2CC(=O)O)c1
6,130 to 132 °C,Cc1c(C)c2c(c(C)c1N)C(c1ccc(C(C)C)cc1)C(C)(C)O2 (configuration not stated)
7,55 to 60 °C,NC(=O)C1=CN(CCCC(=O)NCCc2ccccc2)C=CC1
8,120 °C,COC(=O)CCC(=O)c1ccc(CCNC(C)=O)cc1
9,197 to 198 °C,CC(=O)OCC1(COC(C)=O)CC1(Br)Cn1cc(C)c(=O)[nH]c1=O (configuration not stated)
10,235 °C,CC(C#N)(c1ccc(Cl)cc1)c1ccc(-n2ncc(=O)[nH]c2=O)cc1Cl (configuration not stated)
11,57 to 59 °C,CCNc1nc2ccc(CCc3ccccn3)cc2o1
12,150 to 152 °C,Fc1ccc2[nH]cc(CC3CCN(CCOc4ccc5c(c4)CCC5)CC3)c2c1
13,63 to 65 °C,CC(C)(C)[Si](C)(C)OCc1ccc(C(=NO)C(F)(F)F)cc1
14,68 to 69 °C,CON=C(C(=O)N(C)C)C(C)=NOCc1ccc(C)cc1
15,152 to 154 °C,NC(=O)c1ccnc(Cl)n1
16,122 °C,CCOC(=O)C1=C(C)NN=C(CC)C1c1cccc2ccccc12 (configuration not stated)
17,148 to 150 °C,COc1cc(C=CC(=O)c2c(OCC=C(C)C)ccc3c(C)cc(=O)oc23)cc(OC)c1OC
18,122 to 125 °C,COC(=O)N[C@@H](C(=O)O)c1ccccc1
19,96 to 97 °C,CC(C)CCOc1ccc(Cl)c2c(=O)c3ccccc3sc12
20,138 to 140 °C,O=C(Nc1ccc(-n2nc(C(F)(F)F)cc2C(F)(F)F)cc1)c1cc(F)c(F)c(F)c1F
21,261 to 262 °C,CC1(C)CCC(C)(C)c2cc3c(cc21)CCc1c(-c2ccc(C(=O)O)cc2)csc1-3
22,198 to 199 °C,O=C(O)C1CCc2[nH]c3ccccc3c2C1 (configuration not stated)
23,300 °C,O=C(O)c1cc(C(=O)O)c2c(c1)C(C(=O)O)CC(c1ccccc1)N2 (configuration not stated)
24,182 to 184 °C,CCOC(=O)c1ncc2[nH]c3cccc(Cc4ccccc4Cl)c3c2c1COC
25,95 to 96 °C,COC(=O)c1cc2cc(OC)c(OC)cc2c(-c2cccnc2)c1C(=O)OC
26,167 to 169 °C,O=C(CCl)Nc1cc2c(Nc3cc(Cl)c(Cl)cc3F)ncnc2cc1OCCOCCF
